In patent publication US20260364184A1, “COMPOUND BASED ON OXOISOINDOLINYL-SUBSTITUTED TETRAHYDROPYRIMIDINE-DIONE AND USE THEREOF” (GLUETACS THERAPEUTICS (SHANGHAI) CO., LTD., priority 2023, published 2026):

What was measured:
Assay type in all cases: cell-based
[1] = test system: Human acute lymphocytic leukemia T lymphocytes cell line (CCRF-CEM); assay: Inhibition of CCRF-CEM cell proliferation (CellTiter luminescent viability); details: Homo sapiens, 96 h, Table IF2, AR inhibitor-based; for inhibition at 0.01 µM: 10 nM, read-out: Inhibition Rate at 10 nM (%); for inhibition at 0.5 µM: 500 nM, read-out: Inhibition Rate at 500 nM (%)
[2] = molecular target: T1, AR (Homo sapiens, UniProt P10275); assay: Western blot degradation of AR; details: LnCap Cell; 24 hours
T1 construct: expression of target proteins in cells; endogenous in cells
T1 sequence (P10275 1-920): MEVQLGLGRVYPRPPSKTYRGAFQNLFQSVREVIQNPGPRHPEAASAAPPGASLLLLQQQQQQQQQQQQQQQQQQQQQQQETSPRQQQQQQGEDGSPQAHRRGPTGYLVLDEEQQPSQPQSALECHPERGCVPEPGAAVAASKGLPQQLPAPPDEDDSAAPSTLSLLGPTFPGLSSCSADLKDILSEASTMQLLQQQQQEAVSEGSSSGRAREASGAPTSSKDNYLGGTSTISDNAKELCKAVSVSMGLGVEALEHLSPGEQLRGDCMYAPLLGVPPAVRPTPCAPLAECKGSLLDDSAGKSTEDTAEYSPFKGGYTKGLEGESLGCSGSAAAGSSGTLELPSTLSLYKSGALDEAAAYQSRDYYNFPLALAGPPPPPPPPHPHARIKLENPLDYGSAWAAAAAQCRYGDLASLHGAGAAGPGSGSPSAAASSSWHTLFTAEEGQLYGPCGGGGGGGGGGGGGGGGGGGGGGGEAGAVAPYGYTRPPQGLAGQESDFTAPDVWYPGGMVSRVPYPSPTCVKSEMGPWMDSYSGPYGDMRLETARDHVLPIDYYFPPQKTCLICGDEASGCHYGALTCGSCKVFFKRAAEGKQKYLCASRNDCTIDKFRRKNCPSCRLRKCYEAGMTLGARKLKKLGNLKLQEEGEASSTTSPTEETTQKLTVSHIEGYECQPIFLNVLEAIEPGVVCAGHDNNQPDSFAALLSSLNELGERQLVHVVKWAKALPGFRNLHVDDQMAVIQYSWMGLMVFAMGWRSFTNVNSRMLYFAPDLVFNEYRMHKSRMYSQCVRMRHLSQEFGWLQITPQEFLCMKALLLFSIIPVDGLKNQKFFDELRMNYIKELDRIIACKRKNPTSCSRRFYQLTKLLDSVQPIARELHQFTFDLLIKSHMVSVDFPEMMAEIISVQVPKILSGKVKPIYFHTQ
Protocol: Conventional Western blot assay was performed to evaluate the effects of the compounds of the present disclosure on the expression of target proteins in cells.
(1) Cell Seeding and Protein Harvesting: The selected cells were processed according to the cell seeding procedure and protein harvesting procedure in Table II-2.
(2) To the collected supernatant, 5×SDS sample loading buffer was added, followed by denaturation at 95 °C for 5 minutes. The denatured samples were then separated by SDS-PAGE electrophoresis on a polyacrylamide gel. Proteins were transferred to a nitrocellulose membrane (0.45 μm NC membrane), blocked with blocking buffer at room temperature for 1 hour, and subjected to antibody incubation and development procedures according to the antibody manufacturer's instructions (Cell Signaling Technology).
Half-Maximal Degradation Concentration value (the drug concentration required for degrading proteins by 50%, abbreviated as DC50) reads method: comparing the grayscale values of Western blot bands from drug-treated samples with those from blank DMSO-treated controls, and identifying the drug concentration range at which the grayscale value is half that of the DMSO-treated control bands.
DC50 values can be calculated using ImageJ software to measure grayscale values of Western blot bands from drug-treated samples. The concentration-response curve is fitted to estimate the drug concentration corresponding to half the grayscale value.
Target protein remaining (%) refers to the percentage of target protein remaining in cells after treatment with protein degrader compounds.
Calculation method for target protein remaining (%): Use ImageJ software to measure grayscale values of Western blot bands from drug (protein degrader)-treated samples. The grayscale value of drug-treated bands is divided by that of internal control protein bands, and the resulting quotient is normalized to obtain the relative percentage of remaining target protein after protein degrader treatment.
Target protein degradation rate (%)=1−target protein remaining (%).

[3] = test system: Human T lymphocytic leukemia cell line (Jurkat); assay: Inhibition of Jurkat cell proliferation (CellTiter luminescent viability); details: Homo sapiens, Table IF3, AR inhibitor-based, 96 hours; for inhibition at 0.01 µM: 10 nM, read-out: Inhibition Rate at 10 nM (%); for inhibition at 0.5 µM: 500 nM, read-out: Inhibition Rate at 500 nM (%)
Protocol: The tumor cells used herein were cultured in a cell culture medium listed in table 3 at 37 °C in an incubator with 5% CO2. Prior to experimentation, all cell lines used were correctly identified by STR profiling, and tested negative for mycoplasma contamination using a mycoplasma detection kit through routine screenings.
The IC50 values of the compounds of the present disclosure (including the compounds in Table 1, Table 2, and Examples 1-468) were determined using the CellTiter-Meiluncell Luminescent Cell Viability Assay Kit from Dalian Meilun Biotech Co., Ltd. The detailed procedure is as follows: Tumor cells were seeded in 96-well cell culture plates at the densities specified in Table 4. On the following day, the test compounds of the present disclosure were subjected to serial dilution. The dilution can be performed according to one of the following two methods: • (1) The first dilution method: The test compounds of the present disclosure (including the compounds in Table 1, Table 2, and Examples 1-468) were subjected to 5-fold serial dilutions starting from a highest concentration of 2000 μM, resulting in a total of 9 concentrations from high to low (2000, 400, 80, 16, 3.2, 0.64, 0.128, 0.0256, 0.00512 μM). Subsequently, 0.5 μL of the test compound dilution was transferred into the 96-well plate containing the cells, with each well containing 100 μL of cell culture medium. […] Into the 96-well plate, the diluted test compounds and corresponding detection reagents were added, resulting in final test compound concentrations of 500 nM and 10 nM, respectively. The experimental procedure is described below using the diluted 2 μM test compound as an example.
0.5 μL of the aforementioned diluted compound of the present disclosure (including the compounds in Table 1, Table 2, and Examples 1-468) was added to the seeded cells in 100 μL of medium, yielding a final test compound concentration of 10 nM. After the cells were treated with the compounds of the present disclosure for a specified period, the cell viability assay reagent was added to the culture medium according to the kit's instructions to determine cell viability. […] All controls were treated using the same procedure as the compounds of the present disclosure. The growth inhibition curves for the compounds of the present disclosure were plotted using Prism GraphPad software, and the IC50 values were calculated therefrom.

[4] = test system: Human diffuse large B-cell lymphoma cell line (TMD8); assay: Inhibition of TMD8 cell proliferation (CellTiter luminescent viability); details: Homo sapiens, TMD8, 96 h, Table IF1, AR inhibitor-based; for inhibition at 0.01 µM: TMD8, 10 nM, read-out: Inhibition Rate at 10 nM (%); for inhibition at 0.5 µM: TMD8, 500 nM, read-out: Inhibition Rate at 500 nM (%)

## N#Cc1ccc(O[C@H]2CC[C@H](NC(=O)c3ccc(N4CCC(CN5C6CCC5CN(c5ccc7c(c5)C(=O)N(N5CCC(=O)NC5=O)C7=O)C6)CC4)nn3)CC2)cc1Cl [GT-05824, N-((1r,4r)-4-(3-chloro-4-cyanophenoxy)cyclohexyl)-6-(4-((3-(2-(2,4-dioxotetrahydropyrimidin-1(2H)-yl)-1,3-dioxoisoindolin-5-yl)-3,8-diazabicyclo[3.2.1]octan-8-yl)methyl)piperidin-1-yl)pyridazine-3-carboxamide]
[1]
  inhibition at 0.01 µM: 10 to 15%
  inhibition at 0.5 µM: 30 to 40%
[2]
  Degradation of substrate protein AR (substrate protein remaining %): A (0%≤substrate protein remaining %≤80%)
[3]
  inhibition at 0.01 µM: 5 to 10%
  inhibition at 0.5 µM: 30 to 40%
[4]
  inhibition at 0.01 µM: 15 to 20%
  inhibition at 0.5 µM: 40 to 60%

## N#Cc1ccc(O[C@H]2CC[C@H](NC(=O)c3ccc(N4CCC(CN5CC6CCC(C5)N6c5ccc6c(c5)C(=O)N(N5CCC(=O)NC5=O)C6=O)CC4)nn3)CC2)cc1Cl [GT-05229, N-((1r,4r)-4-(3-chloro-4-cyanophenoxy)cyclohexyl)-6-(4-((8-(2-(2,4-dioxotetrahydropyrimidin-1(2H)-yl)-1,3-dioxoisoindolin-5-yl)-3,8-diazabicyclo[3.2.1]octan-3-yl)methyl)piperidin-1-yl)pyridazine-3-carboxamide]
[1]
  inhibition at 0.01 µM: 30 to 40%
  inhibition at 0.5 µM: 60 to 80%
[2]
  Degradation of substrate protein AR (substrate protein remaining %): A (0%≤substrate protein remaining %≤80%)
[3]
  inhibition at 0.01 µM: 20 to 30%
  inhibition at 0.5 µM: 40 to 60%
[4]
  inhibition at 0.01 µM: 40 to 60%
  inhibition at 0.5 µM: 60 to 80%

## N#Cc1ccc(O[C@H]2CC[C@H](NC(=O)c3ccc(N4CCC(CN5C6CC5CN(c5ccc7c(c5)C(=O)N(N5CCC(=O)NC5=O)C7=O)C6)CC4)nn3)CC2)cc1Cl [GT-05821, N-((1r,4r)-4-(3-chloro-4-cyanophenoxy)cyclohexyl)-6-(4-((3-(2-(2,4-dioxotetrahydropyrimidin-1(2H)-yl)-1,3-dioxoisoindolin-5-yl)-3,6-diazabicyclo[3.1.1]heptan-6-yl)methyl)piperidin-1-yl)pyridazine-3-carboxamide]
[1]
  inhibition at 0.01 µM: 15 to 20%
  inhibition at 0.5 µM: 30 to 40%
[2]
  Degradation of substrate protein AR (substrate protein remaining %): A (0%≤substrate protein remaining %≤80%)
[3]
  inhibition at 0.01 µM: 10 to 15%
  inhibition at 0.5 µM: 20 to 30%
[4]
  inhibition at 0.01 µM: 15 to 20%
  inhibition at 0.5 µM: 40 to 60%

## Cc1ccc(-c2c(C)noc2C)cc1N(CC1CCN(Cc2ccc3c(c2)C(=O)N(N2CCC(=O)NC2=O)C3=O)CC1)c1ccc(C2(C#N)CC2)cc1 [GT-06410, 1-(4-((5-(3,5-dimethylisoxazol-4-yl)-2-methylphenyl)((1-((2-(2,4-dioxotetrahydropyrimidin-1(2H)-yl)-1,3-dioxoisoindolin-5-yl)methyl)piperidin-4-yl)methyl)amino)phenyl)cyclopropane-1-carbonitrile]
[2]
  Degradation of substrate protein AR (substrate protein remaining %): A (0%≤substrate protein remaining %≤80%)

## Cc1ccc(-c2c(C)noc2C)cc1N(CC1CCN(Cc2ccc3c(c2)CN(N2CCC(=O)NC2=O)C3=O)CC1)c1ccc(C2(C#N)CC2)cc1 [GT-06409, 1-(4-((5-(3,5-dimethylisoxazol-4-yl)-2-methylphenyl)((1-((2-(2,4-dioxotetrahydropyrimidin-1(2H)-yl)-1-oxoisoindolin-5-yl)methyl)piperidin-4-yl)methyl)amino)phenyl)cyclopropane-1-carbonitrile]
[2]
  Degradation of substrate protein AR (substrate protein remaining %): A (0%≤substrate protein remaining %≤80%)

## N#Cc1ccc(O[C@H]2CC[C@H](NC(=O)c3ccc(N4CCC(CN5CCN(c6ccc7c(c6)C(=O)N(N6CCC(=O)NC6=O)C7=O)CC5)CC4)nn3)CC2)cc1Cl [GT-05225, N-((1r,4r)-4-(3-chloro-4-cyanophenoxy)cyclohexyl)-6-(4-((4-(2-(2,4-dioxotetrahydropyrimidin-1(2H)-yl)-1,3-dioxoisoindolin-5-yl)piperazin-1-yl)methyl)piperidin-1-yl)pyridazine-3-carboxamide]
[2]
  Degradation of substrate protein AR (substrate protein remaining %): A (0%≤substrate protein remaining %≤80%)

## Cn1cc(-c2cc(S(C)(=O)=O)ccc2OCc2ccc3c(c2)CN(N2CCC(=O)NC2=O)C3=O)c2cc[nH]c2c1=O [GT-06413, 1-(5-((2-(6-methyl-7-oxo-6,7-dihydro-1H-pyrrolo[2,3-c]pyridin-4-yl)-4-(methylsulfonyl)phenoxy)methyl)-1-oxoisoindolin-2-yl)dihydropyrimidine-2,4 (1H,3H)-dione]
[2]
  Degradation of substrate protein AR (substrate protein remaining %): A (0%≤substrate protein remaining %≤80%)

## N#Cc1ccc(O[C@H]2CC[C@H](NC(=O)c3ccc(N4CCC(CN5CCN(C6CCN(c7ccc8c(c7)C(=O)N(N7CCC(=O)NC7=O)C8=O)CC6)CC5)CC4)nn3)CC2)cc1Cl [GT-05829, N-((1r,4r)-4-(3-chloro-4-cyanophenoxy)cyclohexyl)-6-(4-((4-(1-(2-(2,4-dioxotetrahydropyrimidin-1(2H)-yl)-1,3-dioxoisoindolin-5-yl)piperidin-4-yl)piperazin-1-yl)methyl)piperidin-1-yl)pyridazine-3-carboxamide]
[1]
  inhibition at 0.01 µM: 15 to 20%
  inhibition at 0.5 µM: 20 to 30%
[2]
  Degradation of substrate protein AR (substrate protein remaining %): A (0%≤substrate protein remaining %≤80%)
[4]
  inhibition at 0.01 µM: 10 to 15%
  inhibition at 0.5 µM: 35 to 40%
